Legend:
[1] = test system: 6-OHDA lesion of the SNpc; experiment: Parkinson's disease in vivo: 6-OHDA model; parameters: species or system mouse; settings: 6-OHDA lesioned mice
Method: Parkinson's Disease In Vivo Technique: 6-OHDA Model
Preparation of the toxin 6-OHDA (1.65 mg/mL, Sigma Cat# H-4381):
6-OHDA toxin is dissolved in ascorbic acid solution (0.2 mg/mL in dH2O), store in dark on ice. To increase the speed of anaesthesia and reduce stress to the mouse, there is premedication with atropine (0.5 mg/kg) and xylazine (10 mg/kg) is injected subcutaneously via a 27 gauge needle).
To Prepare the Lesion Needle to Inject 6-OHDA:
PBS is sucked up into the line (ensure no air bubbles) with up to […] in a Hamilton syringe. Syringe is placed the in the Kd Scientific syringe pump and secured. Pump is turned the on and syringe is loaded into the pump. Pump volume is set at […] and the rate is set at 0.5 ml/min. The lesion needle is positioned so that the bevelled (eye) of the needle is at a 45° angle from the midline and tightened to secure the needle. Pump is run and checked for fluid coming out.
3-4% isoflurane is carried by oxygen to induce anaesthesia and 1-2% for maintenance of anaesthesia. Animal is placed in small induction chamber and subjected to a few minutes of 4% isoflurane in oxygen at a flow rate of approx 1 l/min. Mouse is then placed in stereotaxic frame. The anaesthetic tube is disconnected from induction box and isoflurane reduced to 2% conc and oxygen flow rate to approx […]. Tube is connected to the nose piece attached to stereotaxic frame so that anaesthetic gas can be constantly administered during surgery. LHS ear bar is screwed at approx 3 mm. RHS ear bar is screwed in until there is no sideways head movement (about 5 mm). Front incisors are placed over the mouthguard and put nose-guard on (3 mm below 0). Mouthguard is screwed into place and ensured the top of the mouse's head is level (re-check this once the animal's skull is exposed).
Using a scalpel (size 4, blade 22), the scalp is cut down the centreline of the mouse's head to expose the skull. Typically 10-15 mm. The surface of the skull is dried with a cotton bud. Drill hole is measured with a ruler 3 mm posterior from Bregma and between 1 and 1.5 mm laterally from the centre line. The skull is drilled into this position until the surface of the brain is exposed.
6-OHDA is sucked up to fill approximately 15 cm of the line and the syringe. Fluid is ensured to be coming out of needle. The bevelled of the needle is aligned over the centreline where Bregma crosses, viewed by Motik dissecting microscope. The needle is ensured to be a few mm above the skull before positioning. Frame is moved 2.9 mm in a posterior direction and 1.1 mm (11 small notches) laterally to the right (for RHS injections) from the starting coordinates at Bregma. Needle is moved down until the tip of the needle just touches the surface of the brain.
Needle is lowered to the required depth of 4.6 mm and brain is allowed to settle for 2 min.
[…] of toxin is injected into the RHS SNpc, taking 4 min. 2 min is allowed to ensure the toxin disperses. Needle is withdrawn and antiseptic applied to the wound, with suture or superglue to close.
Mouse is wrapped in a piece of tissue and placed in a warm recovery box (on a heat pad) with water bottles (50 ml tubes) warmed to 50 C. Panadol® syrup is added to mouse's water bottle.
Rotation is recorded by the Computer based Rotacount system—(Columbus Instruments, Columbus, Ohio, USA). The system comprised of 8 bowls with sensors connected to a computer which measures incremental turns (90 degrees and full turns 360 degrees) either clockwise or counter clockwise. The sensors are positioned above the centre of each bowl about 30 cm above each. Tubing and a thin empty plastic pipette are attached so that the sensor is now extended to with a few cm of the base of the bowl.
Mice are placed individually into the eight bowls. Mice are secured to the pipettes via a cable tie and tape. […]

[2] = test system: generation of hydrogen peroxide (H2O2) by iron; experiment: H2O2 Inhibition Assay; type: biochemical
Method: Assay 1. H2O2 Inhibition Assay.
This fluoresence assay evaluates the ability of a test compound to inhibit the generation of hydrogen peroxide (H2O2) by iron in the presence of a reducing substrate such as ascorbic acid. In the assay, iron in the form of FeCl3 or copper is allowed to react with ascorbic acid by incubating for 1 hr at 37° C. in the presence of the fluorescing compound DCF and horseradish peroxidase. H2O2 generated by the system is assessed by measuring the specific fluorescence profile at the excitation and emission wavelengths of 485 and 530 nm respectively, in the presence of increasing concentrations of test compound. Test compounds are ranked according to their capacity to inhibit H2O2 generated by the system where lower values reflect greater ability to inhibit H2O2 production.

[3] = test system: M17 human neuroblastoma cells; experiment: Metal Uptake Assay (metal transport); type: cell-based; settings: 10 μM Cu + 10 μM compound, 5 hours
Method: Assay 3. Metal Uptake Assay
M17 human neuroblastoma cells are plated out on 6 well plates and left overnight. Enough cells are added to give approximately 70% confluent the following day of the experiment. Test compounds are added to media and mixed with equi-molar amounts of CuCl2 solution. A=10 μM Cu+10 μM MPAC; B=10 μM Cu+10 μM MPAC.
Cells are incubated in 1 ml of media/MPAC/Cu mix for 5 hours at 37° C. At the end of the incubation the media is removed with a vacuum aspirator and 1 ml of PBS added to dislodge the cells. Cells are then put into Eppendorf tubes and pelleted. The PBS is removed and the remaining cell pellets are frozen at −20 C.
The cell pellets are prepared as follows:
Received cell pellets of similar levels in 1.5 ml microfuge tubes. Added 50 μl of concentrated Nitric Acid (Aristar, BDH) to each cell pellet and allowed them to digest over night. Heated the samples for 20 min at 90° C. to complete the digestion. The volume of each sample was reduced to ˜45 ul after digestion. Added 1 ml of the 1% Nitric Acid diluent to each sample. (referred to as the “preparation solution” samples).
Measurements were made using a Varian UltraMass ICPMS instrument under operating conditions suitable for routine multi-element analysis.
The instrument was calibrated using Blank, 10, 50 and 100 ppb of a certified multi-element ICPMS standard solution (ICP-MS—CAI2-1, Accustandard) for Fe, Cu and Zn in 1% nitric acid. Used an certified internal standard solution containing 100 ppb Yttrium (Y 89) as an internal control (ICP-MS—IS-MIX1-1, Accustandard).

IC50 [2]	Structure (SMILES)	Behaviour (Rotation) % SSV ([1]; SSV = 0%, dose not given)	Behaviour (Rotation) total turns/h ± SD ([1]; dose not given)	SN cell counts % of SSV (SSV = 0%) ([1]; dose not given)	SN cell counts (cells ± SD) ([1]; dose not given)	Metal transport [3]	also measured
460 nM	C#CCN(C)Cc1nc2c(O)c(Cl)cc(Cl)c2c(=O)n1CC1CC1 [Compound F4387]	24.51%	(195.57 ± 114.48) turns/h	46.90%	(2821.24 ± 940.22) cells	Metal transport 111%	
1930 nM	Br.CCn1c(CNC)nc2c(O)c(Cl)cc(Cl)c2c1=O [Compound F4486]					Metal transport 14%	
770 nM	CCNCc1nc2c(O)c(Cl)cc(Cl)c2c(=O)n1CC [Compound F4495]	18.06%	(212.29 ± 101.41) turns/h	57.22%	(3019.56 ± 318.79) cells	Metal transport 8%	
830 nM	Br.CCNCc1nc2c(O)c(Cl)cc(Cl)c2c(=O)n1C [Compound F4496]	36.62%	(164.20 ± 100.40) turns/h	95.68%	(3758.11 ± 510.98) cells	Metal transport 7%	

Continued, molecule first:

Structure (SMILES)	IC50 [2]	Behaviour (Rotation) % SSV ([1]; SSV = 0%, dose not given)	Behaviour (Rotation) total turns/h ± SD ([1]; dose not given)	SN cell counts % of SSV (SSV = 0%) ([1]; dose not given)	SN cell counts (cells ± SD) ([1]; dose not given)	Metal transport [3]	also measured
CN(C)Cc1nc2c(O)c(Cl)cc(Cl)c2c(=O)n1CC1CC1 [Compound F4267]							Behaviour (Rotation) % SSV ([1]; 5 mg kg): 7.01%; Behaviour (Rotation) total turns/h ± SD ([1]; 5 mg kg): (240.89 ± 171.99) turns/h; SN cell counts % of SSV (SSV = 0%) ([1]; 5 mg kg): 55.79%; SN cell counts (cells ± SD) ([1]; 5 mg kg): (2992.00 ± 883.84) cells; Behaviour (Rotation) % SSV ([1]; 15 mg kg): −23.39%; Behaviour (Rotation) total turns/h ± SD ([1]; 15 mg kg): (319.67 ± 171.05) turns/h; SN cell counts % of SSV (SSV = 0%) ([1]; 15 mg kg): 77.86%; SN cell counts (cells ± SD) ([1]; 15 mg kg): (3415.96 ± 498.05) cells; Behaviour (Rotation) % SSV ([1]; 30 mg kg): 36.33%; Behaviour (Rotation) total turns/h ± SD ([1]; 30 mg kg): (164.93 ± 110.90) turns/h; SN cell counts % of SSV (SSV = 0%) ([1]; 30 mg kg): 110.44%; SN cell counts (cells ± SD) ([1]; 30 mg kg): (4041.70 ± 799.55) cells
CCn1c(CN(C)C)nc2c(O)c(Cl)cc(Cl)c2c1=O.Cl [Compound F4268]		56.04%	(114.56 ± 71.86) turns/h	93.96%	(3725.04 ± 842.65) cells		
CN(C)Cc1nc2c(O)c(Cl)cc(Cl)c2c(=O)n1C [Compound F4269, 5,7-Dichloro-2-(dimethylamino)methyl-8-hydroxy-3-methylquinazolin-4(3H)-one]		48.85%	(132.50 ± 81.93) turns/h	68.91%	(3243.93 ± 724.98) cells		
CCN(CC)Cc1nc2c(O)c(Cl)cc(Cl)c2c(=O)n1CC1CC1 [Compound F4385]	910 nM	49.98%	(129.57 ± 16.26) turns/h	56.81%	(3011.56 ± 502.27) cells	Metal transport 9%	
